Measured values: publication PMC5622025, “Synthesis and biological evaluation of tricyclic matrinic derivatives as a class of novel anti-HCV agents” (Chemistry Central Journal, 2017)
Where two headings read alike, the source gives them in different places.

Legend:
Kunming mice = assay: Acute toxicity test, single oral dosing, 7 days monitoring; type: in vivo
Method: Each compound was given orally in a single-dosing experiment at 250, 500, 750 or 1000 mg kg^−1, respectively. The mice were closely monitored for 7 days.
Female Kunming mice with weight of 20.0 ± 1.0 g were fed with regular rodent chow and housed in an air conditioned room. The mice were randomly divided into different groups with six mice each. Each compound was given orally in a single-dosing experiment at 0, 250, 500, 750 or 1000 mg kg^−1 (ddH2O as control), respectively. The mice were closely monitored for 7 days. Body weight as well as survival was monitored.

Huh7.5 cells = assay: Cytotoxicity assay (MTT) in Huh7.5 cells; type: cell-based, human; details: Huh7.5 cells, 72 h, MTT; read-out: CC50 (cytotoxic concentration required to inhibit Huh7.5 cell growth by 50%)
Method: (§1) All the target compounds were evaluated for their anti-HCV activities (EC50) and cytotoxicities (CC50) in human Huh7.5 cells using specific real-time RT-PCR assay, as described earlier. As an important indicator, the selectivity index (SI) was calculated as a ratio of CC50 to EC50. Anti-HCV ability of a given compound was estimated by combining its EC50 with SI values.
(§2) Human liver cell line Huh7.5 cells (kindly provided by Vertex Pharmaceuticals, Inc., Boston, MA) were cultured in Dulbecco’s modified eagle medium (DMEM) supplemented with 10% inactivated fetal bovine serum and 1% penicillin–streptomycin (invitrogen). Cells were digested with 0.05% trypsin-ethylene diamine tetraacetic acid (EDTA) and split twice a week.
(§3) Huh7.5 cells were seeded into 96-well plates (Costar) at a density of 3 × 10^4 cells cm^−2. After 24 h incubation, fresh culture medium containing test compounds at various concentrations were added. 72 h later, cytotoxicity was evaluated with 3-(4,5-dimethylthiazol-2-yl)-2,5-diphenyltetrazolium bromide (MTT).

[1] = PK study after single oral dosing; type: in vivo, SD rats; details: rats, single oral dosing of 25 mg kg^−1, n = 3
HCV [2] = assay: Anti-HCV effect in vitro, intracellular HCV RNA by real-time RT-PCR in infected Huh7.5 cells; type: cell-based, hepatitis C virus; details: for EC50: HCV-infected Huh7.5 cells, 72 h, real-time RT-PCR, read-out: EC50 (concentration required to inhibit HCV growth by 50%)
Method: as §1, §2
Huh7.5 cells were seeded into 96-well or 6-well plates (Costar) at a density of 3 × 10^4 cells cm^−2. After 24 h incubation, the cells were infected with HCV viral stock (45 IU cell^−1) and simultaneously treated with the test compounds at various concentrations or solvent as control. The culture medium was removed after 72 h inoculation, the intracellular total RNA (in 96-well plates) was extracted with RNeasy Mini Kit (Qiagen), and total intracellular proteins (in 6-well plates) were extracted with Cyto-Buster Protein Extraction Reagent added with 1 mM protease inhibitor cocktail. The intracellular HCV RNA was quantified with a real time one-step reverse-transcription polymerase chain reaction (RT-PCR).

HCV [3] = test system: HCV; parameters: method as in PMID 23516533, PMID 20593456; details: earlier studies; cited from earlier work
[4] = Cytotoxicity assay (MTT) in Huh7.5 cells; type: cell-based, human; details: human; Huh7.5 cells, 72 h, MTT; read-out: CC50 (cytotoxic concentration required to inhibit Huh7.5 cell growth by 50%)
Method: as §1, §2, §3

Row | SMILES | LD50 (Kunming mice) [mg/kg] | CC50 (Huh7.5 cells) [µM] | AUC 0–t [1] [µM·h] | AUC 0–∞ [1] [µM·h] | Cmax [1] [nM] | MRT [1] [h] | Tmax [1] [h] | t1/2 [1] [h] | EC50 (HCV [2]) [µM] | SI (anti-HCV) (HCV [3]) | CC50 at 72 h [4] [µM] | EC50 (HCV [2]; Hepatitis C virus) [µM] | SI (ratio of CC50 to EC50) (HCV [2]; Huh7.5 cells)
1 | COc1ccc(CN2CC3CCCN4CCCC(C2CCCCO)C34)cc1.Cl.Cl (stereo not shown) [7a, 12N-(4-Methoxybenzyl)matrinol dihydrochloride] | 708 | 383 ± 30.2 | 1.55 | 1.58 | 620 | 3.55 | 0.42 | 4.69 | 2.81 ± 0.82 |  |  |  | 
2 | COc1ccc(CN2C[C@@H]3CCCN4CCC[C@@H]([C@H]34)[C@H]2CCCC(=O)O)cc1 [compound 1, 12N-4-methoxylbenzyl matrinic acid] |  |  |  |  |  |  |  |  |  | over 22 | > 1000 | 43.8 ± 3.81 | > 22.8
3 | Cc1ccc(CN2C[C@@H]3CCCN4CCC[C@@H]([C@H]34)[C@H]2CCCCO)cc1.Cl.Cl [7b, 12N-(4-Methylbenzyl)matrinol dihydrochloride] | 392 | 252 ± 3.04 | 2.32 | 2.36 | 790 | 4.47 | 1.00 | 3.39 | < 2.06 |  |  |  | 
